Measurements as given in patent US6645504B1, “Bystander suppression of type I diabetes by oral administration of glucagon” (AutoImmune Inc., priority 1987, dated 2003).
Where “and” joins values, the source holds several entries; their conditions need not be identical. Identical values can stand only once.

How the values were obtained:
[1] = test system: EAE; experiment: EAE induced by guinea pig MBP 71-90, feeding of MBP peptides; assay type: in vivo, Lewis rats; conditions: fed; FIG. 14
Description: The effects of feeding various peptides to Lewis rats induced for EAE by guinea pig MBP residue nos. 71-90 (the major immunodominant epitope of guinea pig MBP as shown in Example 3 above) were also studied.
EAE was induced by immunizing with 0.25 mg of guinea pig MBP amino acid residue nos 71-90 in Complete Freund's Adjuvant and the effect of feeding various guinea pig MBP peptides on EAE was examined.

[2] = test system: EAE; experiment: I.V. tolerization with MBP and MBP peptides in EAE induced with whole guinea pig MBP; assay type: in vivo, SJL/J mice; conditions: days 8 and 9 post immunization, FIG. 16
From the text: FIG. 16 is a bar graph showing the effect of intravenous tolerization with MBP and disease inducing and non-inducing fragments thereof on induced EAE expression in SJL/J mice.
Finally, the suppression of EAE by I.V. tolerization with MBP and MBP peptides prior to disease expression (on days 8 and 9 post immunization) was examined.

[3] = test system: OVA (responder) line; experiment: Transwell triggering of suppression by MBP peptides; assay type: cell-based, rats; conditions: peptide added to modulator well with spleen cells of MBP-fed animals; FIG. 11
From the text: (§1) Transwell Cultures. A dual chamber transwell culture system (Costar, Cambridge, Mass.), which is 24.5 mm in diameter and consists of two compartments separated by a semi-permeable polycarbonate membrane, with a pore size of 0.4 μm, was used. The two chambers are 1 mm apart, allowing cells to be coin-cubated in close proximity without direct cell-to-cell contact. To measure in vitro suppression of proliferative responses in transwell cultures, 5×10^4 MBP- or OVA-specific line cells, raised and maintained as previously described (Ben-Nun, A. et al., Eur. J. Immunol. 11:195, 1981), were cultured with 10^6 irradiated (2,500 rad) thymocytes, in 600 μl of proliferation media in the lower well. Spleen cells from orally tolerized rats or controls (fed BSA) were added to the upper well (5×10^5 cells in 200 μl). Spleen cells were removed 7-14 days after the last feeding, and a single cell suspension was prepared by pressing the spleens through a stainless steel mesh. MBP and OVA (50 μg/ml) were added in a volume of 20 μl. […] In some experiments, modulator cells were added in the lower well together with responder cells, and in these instances modulator cells were irradiated (1,250 rad) immediately before being placed in culture. Proliferation media consisted of RPMI 1640 (Gibco Laboratories, Grand Island, N.Y.) supplemented with […] 2-mercaptoethanol, 1% sodium pyruvate, 1% penicillin and streptomycin, 1% glutamine, 1% HEPES buffer, 1% nonessential amino acids, and 1% autologous serum. Each transwell was performed in quadruplicate. The transwells were incubated at 37° C. in a humidified 6% CO2 and 94% air atmosphere for 72 hours. After 54 hours of culture, each lower well was pulsed with 4 μCi of [^3H]thymidine and at 72 hours split and reseeded to three wells in a round-bottomed 96-well plate (Costar) for harvesting onto fiberglass filters and counting using standard liquid scintillation techniques. Percent suppression =100×(1−Δ A cpm responders cultured with modulators/Δ cpm of responders).
The Transwell System of Example 2 above was used to identify the epitopes present on guinea pig MBP which induce the release of TGF-β from suppressor T-cells.
Peptides corresponding to guinea pig MBP residue nos.

[4] = test system: DTH responses; experiment: DTH responses in animals fed MBP or MBP peptides; assay type: in vivo, Lewis rats; conditions: FIG. 15
From the text: Guinea pig MBP peptide 131-150 was ineffective in this case. Peptides were also fed with STI which prevents their breakdown by gastric juices and enhances their biological effect. DTH responses to whole MBP were suppressed by feeding MBP or any one of the MBP-peptides 21-40, or 71-90.

[5] = test system: MBP-primed lymphoid cells; experiment: Proliferation of MBP-primed lymphoid cells in response to overlapping guinea pig MBP peptides; assay type: cell-based, rats; conditions: lymph node cells triggered with MBP-peptides; FIG. 10
From the text: The disease-inducing fragments (autoimmune response epitopes) of MBP were first confirmed as follows: Overlapping peptides as detailed in FIG. 10, of guinea pig MBP were obtained from commercial sources or synthesized in accordance with well-known techniques, specifically using a commercial peptide synthesis apparatus (from Applied Biosystems) and following the manufacturer's instructions. Whole MBP was then fed to rats and lymph node cells from the orally tolerized animals were triggered with the MBP-peptides. The ability of the triggered cells to induce killer T-cells was then quantitatively determined by a proliferation assay also, as described in Examples 1 and 2, and by testing the ability of the proliferating cells to transfer the disease.

[6] = test system: MBP specific T-cells; experiment: Treatment of supernatants with anti-cytokine antibodies; assay type: cell-based, Lewis rats; conditions: added to spleen cells of MBP-fed animals stimulated with MBP; FIG. 2
Description: In Vitro Suppression Of Proliferative Responses By Supernatants. Spleen cells were removed 7-14 days after the last feeding and a single cell suspension prepared by pressing the spleens through a stainless steel mesh. For preparation of supernatants, spleen cells at a concentration of 5×10^6 cells/ml were stimulated in vitro with MBP (50 μg/ml) in 10 ml of proliferation medium. Proliferation medium consisted of RPMI 1640 (GIBCO, Grand Island, N.Y.) supplemented with 2×10^−5 M 2-mercaptoethanol, 1% sodium pyruvate, 1% penicillin and streptomycin, 1% glutamine, 1% HEPES buffer, 1% nonessential amino acids and 1% autologous serum. Supernatants were harvested at 24 hours and 100 μl added to 2.5×10^4 MBP specific T-cells, raised and maintained as previously described (Ben-Nun, A. et al., Eur. J. Immunol. 11:195-199, 1981), cultured with 5×10^5 irradiated (2500 rad) thymocytes, in 100 μl of proliferation media. MBP ([…]) was added to the culture in a volume of 20 μl. Experiments were performed in triplicate in round bottomed 96-well plates (Costar, Cambridge, Mass.). Cells were cultured for 72 hours at 37° C. in an incubator with humidified 6% CO2 and 94% air atmosphere, and each well was pulsed with 1 μCi of ^3H thymidine for the last 18 hours of culture. Cultures were harvested onto fiberglass filters using a multiharvester and counted using standard liquid scintillation techniques. […]

[7] = test system: rheumatoid arthritis symptoms; experiment: Oral collagen in humans with rheumatoid arthritis; assay type: in vivo; conditions: 0.1-1.0 mg single dose daily
From the text: The above animal models can be used to establish the utility of the present invention in mammals (including humans). […] All of these human trials were attempted based on animal data using the appropriate disease model.

[8] = test system: MBP line; experiment: Transwell culture suppression of MBP T cell line; assay type: cell-based, Lewis rats; conditions: MBP line + MBP
From the text: as §1

[9] = test system: DTH responses to MBP or OVA; experiment: Delayed type hypersensitivity (DTH) testing, Example 2; assay type: in vivo, Lewis rats
Description: Delayed Type Hypersensitivity (DTH) Testing. DTH was tested by injecting 50 μg of MBP or OVA in PBS, subcutaneously into the ear. MBP was injected in the left ear and OVA in the right ear in the same animal. Thickness, in units of 0.01 inch, was measured in a blinded fashion, before and 48 hours after challenge, using micrometer calipers (Mitutoyo, Utsunomia, Japan). Change in ear thickness before and after challenge was recorded for each animal, and results were expressed as the mean for each experimental group ± SEM; each group consisted of five animals.

[10] = test system: TGF-β; experiment: Measurement of TGF-β activity in serum-free culture supernatants of spleen cells; assay type: cell-based, Lewis rats; conditions: spleen cells of fed animals stimulated in vitro with the fed antigen
Description: Measurement Of TGF-β Activity In Serum-Free Culture Supernatants. Serum free culture supernatants were collected as previously described (Kehri, et al. J. Exp. Med. 163: 1037-1050, 1986; Wahl, et al. J. […] Thereafter cells were washed three times and resuspended in serum-free medium for the remainder of the 72 hour culture, collected, then frozen until assayed. Determination of TGF-β content and isoform type in supernatants was performed using a mink lung epithelial cell line (American Type Culture Collection, Bethesda, Md. #CCL-64) according to Danielpour et al. (supra), and confirmed by a Sandwich Enzyme Linked Immunosorbent Assay (SELISA) assay as previously described (Danielpour et al. Growth Factors 2: 61-71,1989). The percent active TGF-β was determined by assay without prior acid activation of the samples.

[11] = test system: EAE; experiment: Adoptive transfer of disease suppression; assay type: in vivo, Lewis rats; conditions: naive recipients immunized with MBP/CFA and given OVA subcutaneously; FIG. 9
Description: Adoptive Transfer Of Disease Suppression. In order to monitor the adoptive transfer of disease suppression occurring during Bystander Suppression donor rats were fed either 1 mg MBP, OVA, or KLH, five times at 2 day intervals and killed 7-14 days after the final feeding. Spleen cells were harvested, and incubated in vitro with the homologous antigen (50 μg/ml) in proliferation medium, for 72 hours. Cells were injected intraperitoneally: 10^8 cells for whole spleen populations or 5-6×10^7 cells for CD8− or CD4-depleted populations. Recipient animals were irradiated (250 rad) before adoptive transfer, immunized with MBP/CFA 6 hours after adoptive transfer, and challenged 8 hours later with 50 μg OVA.

[12] = test system: EAE; experiment: In vivo bystander suppression of EAE (MBP/CFA plus secondary antigen); design: species or system Lewis rats
Description: Immunization Of Animals. Animals were immunized with 25 μg of MBP in the footpad, emulsified in an equal volume of CFA containing 4 mg/ml of Mycobacterium tuberculosis (Difco Labs, Detroit, Mich.) in order to induce a substantial EAE disease state. For in vivo bystander suppression experiments, 50-300 μg of the secondary antigens OVA, BSA or KLH were injected subcutaneously in the same footpad in 100 μl PBS 8 hours after primary immunization with MBP CFA.
Clinical Evaluation. Animals were evaluated in a blinded fashion every day for evidence of EAE in order to correlate the clinical manifestations of Bystander Suppression with the in vitro assays described below. Clinical severity of EAE was scored as follows: 0, no disease; 1, limp tail; 2, hind limb paralysis; 3, hind limb paraplegia, incontinence; 4, tetraplegia; 5, death. Mean maximal clinical severity was calculated as previously described for each experimental group (7). Statistical analysis was performed using a one-tailed student's t test and a chi square analysis for comparing incidence between groups.
Induction Of Oral Tolerance. Animals were fed 1 mg MBP, OVA, BSA or KLH dissolved in 1 ml PBS or PBS alone, by gastric intubation using an 18-gauge stainless steel animal feeding needle (Thomas Scientific, Swedesboro, N.J.). Animals were fed five times (total dose of 5 mg), at intervals of 2-3 days with the last feeding 2 days before immunization.

[13] = OVA-fed modulators + OVA in upper well
[14] = OVA-fed modulators in upper well without OVA

guinea pig MBP 71-90: peptide spanning residue 71-90 of guinea pig MBP, the immunodominant epitope (SLPQKSQRSQDENPVVHFFK; UniProt P25188 71-90, looked up, fragment)
down-regulation of EAE induced by guinea pig MBP 71-90 [1]: equally effective in down-regulating EAE | suppression of EAE induced with whole guinea pig MBP [2]: effective in suppressing EAE | triggering suppression of proliferation in the transwell system [3]: ineffective in triggering suppression | DTH responses to guinea pig MBP peptide 71-90 [4]: suppressed | DTH responses to whole MBP [4]: suppressed | induction of killer T-cells (proliferation) [5]: by far the most efficient inducer of killer T-cells

COc1ccc2c(c1)c(CC(=O)O)c(C)n2C(=O)c1ccc(Cl)cc1 [indomethacin]
effect on suppression mediated by the supernatants [6]: No effect on suppression

collagen
rheumatoid arthritis symptoms (joint tenderness, AM stiffness, grip strength) [7]: successfully suppressed

OVA: Ovalbumin purchased from Sigma
Percent Suppression [8, 13]: 47% | Δ cpm [8, 13]: 37,778 ± 3,780 cpm | Percent Suppression [8, 14]: 6% | Δ cpm [8, 14]: 67,075 ± 2,904 cpm | DTH response to OVA ([9]; OVA fed, OVA subcutaneously in association with MBP/CFA): did not generate an immune response to OVA | DTH responses to MBP ([9]; fed antigen, then immunized with MBP/CFA plus OVA, FIG. 7): Suppressed DTH responses to MBP | TGF-β in the active form [10]: 65±9% | amount of TGF-β ([10]; serum-free): 6.1 ± 1.0 ng/mL | adoptive transfer of protection by spleen cells from fed animals [11]: adoptively transferred protection | disease severity ([12]; OVA fed (1 mg, five times) plus OVA given subcutaneously after MBP/CFA, FIG. 6B): 0.9±0.2 | disease severity ([12]; OVA fed and KLH given subcutaneously (control group), FIG. 6B): 3.9±0.1 | disease severity ([12]; animals fed OVA in whom KLH was given after MBP/CFA plus OVA subcutaneously, FIG. 6C, two values 'respectively'): 3.7±0.1 and 3.8±0.2 | dose of secondary antigen given subcutaneously at which suppression of EAE occurred ([12]; fed antigen, same antigen subcutaneously after MBP/CFA): 50 µg | mean maximal clinical disease severity ([12]; not fed, OVA given subcutaneously in footpad 8 hours after MBP/CFA, FIG. 6A): 3.8±0.1
